Measurements reported in patent US20230087342A1, “AZEPANE DERIVATIVE” (Nippon Chemiphar Co., Ltd., priority 2019, published 2023).
pEC50: −log10 of the molar value.

target: T1, human κ opioid receptors (Homo sapiens, UniProt P41145); experiment: Opioid receptor function test (Lance Ultra cAMP kit, agonist activity); type: cell-based; details: CHO cells expressing human κ opioid receptors, 10 μM forskolin, 30 minutes
T1 construct: host or cells: CHO cells
Procedure, shortened: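 CHO cells expressing human κ opioid receptor incubated 30 min with test compound (10^−14 to 10^−7 M) and 10 μM forskolin in HSS/5 mM HEPES pH 7.4 with 0.5 mM IBMX and 0.1% SA. cAMP measured by TR-FRET (Lance Ultra) 1 h after detection reagent addition.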

T1 sequence (P41145 whole entry): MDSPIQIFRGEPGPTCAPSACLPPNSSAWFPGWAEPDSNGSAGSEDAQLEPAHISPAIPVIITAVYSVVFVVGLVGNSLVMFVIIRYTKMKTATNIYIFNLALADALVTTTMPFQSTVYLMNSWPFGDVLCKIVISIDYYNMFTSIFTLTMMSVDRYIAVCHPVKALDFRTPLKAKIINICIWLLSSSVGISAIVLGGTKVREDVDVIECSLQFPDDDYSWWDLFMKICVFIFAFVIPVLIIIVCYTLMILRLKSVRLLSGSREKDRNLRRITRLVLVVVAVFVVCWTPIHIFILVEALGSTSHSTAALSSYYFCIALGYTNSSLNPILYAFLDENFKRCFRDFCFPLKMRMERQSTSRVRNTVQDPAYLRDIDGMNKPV

| Compound | pEC50 |
| --- | --- |
| Cc1cnn(CCN2CC[C@]34CCN(CC5CC5)[C@H](Cc5ccc(O)cc53)[C@]4(O)CC2(C)C)c1 [Example 270, (5aS,6R,11bR)-14-(cyclopropylmethyl)-4,4-dimethyl-3-(2-(4-methyl-1H-pyrazol-1-yl)ethyl)-2,3,4,5,6,7-hexahydro-6,11b-(epiminoethano)naphtho[1,2-d]azepine-5a,10(1H)-diol] | 10.28 |
| Cc1cnn(CCN2CC[C@]34CCN(CC5CC5)[C@H](Cc5ccc(O)cc53)[C@]4(O)CC2C)c1 (stereo partly drawn) [Example 274, (5aS,6R,11bS)-14-(cyclopropylmethyl)-4-methyl-3-(2-(4-methyl-1H-pyrazol-1-yl)ethyl)-2,3,4,5,6,7-hexahydro-6,11b-(epiminoethano)naphtho[1,2-d]azepine-5a,10(1H)-diol] | 10.15 |
| Cc1cc2c(cc1O)[C@@]13CCN(C(=O)Cc4cn5ccccc5n4)CC[C@@]1(O)[C@@H](C2)N(CC1CC1)CC3 [Example 314, 1-((5aS,6R,11bR)-14-(cyclopropylmethyl)-5a,10-dihydroxy-9-methyl-1,2,5,5a,6,7-hexahydro-6,11b-(epiminoethano)naphtho[1,2-d]azepin-3(4H)-yl)-2-(imidazo[1,2-a]pyridin-2-yl)ethan-1-one] | 9.57 |
| Cc1cc(CC(=O)N2CC[C@]34CCN(CC5CC5)[C@H](Cc5cc(C)c(O)cc53)[C@]4(O)CC2)ns1 [Example 323, 1-((5aS,6R,11bR)-14-(cyclopropylmethyl)-5a,10-dihydroxy-9-methyl-1,2,5,5a,6,7-hexahydro-6,11b-(epiminoethano)naphtho[1,2-d]azepin-3(4H)-yl)-2-(5-methylisothiazol-3-yl)ethan-1-one] | 9.74 |
| Cc1cnn(CC(=O)N2CC[C@]34CCN(CC5CC5)[C@H](Cc5cc(C)c(O)cc53)[C@]4(O)CC2)c1 [Example 328, 1-((5aS,6R,11bR)-14-(cyclopropylmethyl)-5a,10-dihydroxy-9-methyl-1,2,5,5a,6,7-hexahydro-6,11b-(epiminoethano)naphtho[1,2-d]azepin-3(4H)-yl)-2-(4-methyl-1H-pyrazol-1-yl)ethan-1-one] | 9.48 |
| Cc1cc2c(cc1O)[C@@]13CCN(C(=O)Cn4cc(C(F)(F)F)cn4)CC[C@@]1(O)[C@@H](C2)N(CC1CC1)CC3 [Example 329, 1-((5aS,6R,11bR)-14-(cyclopropylmethyl)-5a,10-dihydroxy-9-methyl-1,2,5,5a,6,7-hexahydro-6,11b-(epiminoethano)naphtho[1,2-d]azepin-3(4H)-yl)-2-(4-(trifluoromethyl)-1H-pyrazol-1-yl)ethan-1-one] | 10.08 |
| Cc1cc2c(cc1O)[C@@]13CCN(C(=O)CN4CC[C@@H](C)C4)CC[C@@]1(O)[C@@H](C2)N(CC1CC1)CC3 [Example 336, 1-((5aS,6R,11bR)-14-(cyclopropylmethyl)-5a,10-dihydroxy-9-methyl-1,2,5,5a,6,7-hexahydro-6,11b-(epiminoethano)naphtho[1,2-d]azepin-3(4H)-yl)-2-((R)-3-methylpyrrolidin-1-yl)ethan-1-one] | 9.74 |
| CC1(C)C[C@@]2(O)[C@H]3Cc4ccc(O)cc4[C@@]2(CCN3CC2CC2)CCN1C(=O)Cc1ccccn1 [Example 343, 1-((5aS,6R,11bR)-14-(cyclopropylmethyl)-5a,10-dihydroxy-4,4-dimethyl-1,2,5,5a,6,7-hexahydro-6,11b-(epiminoethano)naphtho[1,2-d]azepin-3(4H)-yl)-2-(pyridin-2-yl)ethan-1-one] | 9.25 |
| CCC1C[C@@]2(O)[C@H]3Cc4ccc(O)cc4[C@]2(CCN1C(=O)Cc1ccccn1)CCN3CC1CC1 (stereo partly drawn) [Example 347, 1-((5aS,6R,11bR)-14-(cyclopropylmethyl)-4-ethyl-5a,10-dihydroxy-1,2,5,5a,6,7-hexahydro-6,11b-(epiminoethano)naphtho[1,2-d]azepin-3(4H)-yl)-2-(pyridin-2-yl)ethan-1-one] | 9.92 |
| Cc1cc2c(cc1O)[C@@]13CCN(C(=O)Cc4cc(C(F)(F)F)ccn4)CC[C@@]1(O)[C@@H](C2)N(CC1CC1)CC3 [Example 355, 1-((5aS,6R,11bR)-14-(cyclopropylmethyl)-5a,10-dihydroxy-9-methyl-1,2,5,5a,6,7-hexahydro-6,11b-(epiminoethano)naphtho[1,2-d]azepin-3(4H)-yl)-2-(4-(trifluoromethyl)pyridin-2-yl)ethan-1-one] | 9.96 |
| Cc1cc2c(cc1O)[C@@]13CCN(C(=O)Cc4n[nH]c5ccccc45)CC[C@@]1(O)[C@@H](C2)N(CC1CC1)CC3 [Example 357, 1-((5aS,6R,11bR)-14-(cyclopropylmethyl)-5a,10-dihydroxy-9-methyl-1,2,5,5a,6,7-hexahydro-6,11b-(epiminoethano)naphtho[1,2-d]azepin-3(4H)-yl)-2-(1H-indazol-3-yl)ethan-1-one] | 10.21 |
| (5aS,6R,11bS)-14-(cyclopropylmethyl)-3-((1R,3R)-3-(4-methyl-1H-pyrazol-1-yl)cyclopentyl)-2,3,4,5,6,7-hexahydro-6,11b-(epiminoethano)naphtho[1,2-d]azepine-5a,10(1H)-diol and (5aS,6R,11bS)-14-(cyclopropylmethyl)-3-((1S,3S)-3-(4-methyl-1H-pyrazol-1-yl)cyclopentyl)-2,3,4,5,6,7-hexahydro-6,11b-(epiminoethano)naphtho[1,2-d]azepine-5a,10(1H)-diol [Example 237] | 9.54 |

system: not listed separately; experiment: Metabolic stability test; type: in vitro ADME; details: human liver microsomes, 0 to 30 minutes; a hydrochloride was used
Method: To determine the unchanged product-residual ratio of the test compound in the reaction sample, human liver microsomes and the test compound were reacted for a predetermined time (0 to 30 minutes). The unchanged product-residual ratio at a reaction time of 0 hours was considered 100%, the residual ratio after incubation was log-linear plotted with respect to the time, a regression line (y=100 e^−kt, k=slope of the line: elimination rate constant) was determined, and the metabolic clearance CLint (mL/min/kg) was calculated using the following formula.
CLint*=k (−min)×45 (mg MS protein/g liver)×21 (g liver/kg)/MS protein (mg MS protein/mL)
*: Yamazaki S.; Skaptason J.; Romero D, Vekich S.; Jones HM.; Tan W.; Wilner KD.; Koudriakova T. Drug Metab. Dispos. 2011 March; 39 (3): 383-393.

| Compound | CLint scaled [mL/min/kg] |
| --- | --- |
| O=C(Cc1ncccn1)N1CC[C@]23CCN(CC4CC4)[C@H](Cc4ccc(O)cc42)[C@]3(O)CC1 [Example 20, 1-((5aS,6R,11bR)-14-(cyclopropylmethyl)-5a,10-dihydroxy-1,2,5,5a,6,7-hexahydro-6,11b-(epiminoethano)naphtho[1,2-d]azepin-3(4H)-yl)-2-(pyrimidin-2-yl)ethan-1-one] | 3.9 |
| O=C(Cc1ncccn1)N1CCC[C@@]2(O)[C@H]3Cc4ccc(O)cc4[C@@]2(CCN3CC2CC2)C1 [Example 139, 1-((5aS,6R,11bS)-14-(cyclopropylmethyl)-5a,10-dihydroxy-3,4,5,5a,6,7-hexahydro-6,11b-(epiminoethano)naphtho[1,2-c]azepin-2(1H)-yl)-2-(pyrimidin-2-yl)ethan-1-one] | 29.7 |
| Cc1cnn(CCN2CC[C@]34CCN[C@H](Cc5ccc(O)cc53)[C@]4(O)CC2)c1 [Example 176, (5aS,6R,11bR)-3-(2-(4-methyl-1H-pyrazol-1-yl)ethyl)-2,3,4,5,6,7-hexahydro-6,11b-(epiminoethano)naphtho[1,2-d]azepine-5a,10(1H)-diol] | 8.2 |
| NC(=O)c1ccc2c(c1)[C@@]13CCN(C(=O)Cc4ccccn4)CC[C@@]1(O)[C@@H](C2)N(CC1CC1)CC3 [Example 247, (5aS,6R,11bR)-14-(cyclopropylmethyl)-5a-hydroxy-3-(2-(pyridin-2-yl)acetyl)-1,2,3,4,5,5a,6,7-octahydro-6,11b-(epiminoethano)naphtho[1,2-d]azepine-10-carboxamide] | 4.8 |
| Cc1cnn(CCN2CC[C@]34CCN(CC5CC5)[C@H](Cc5cccc(O)c53)[C@]4(O)CC2)c1 [Example 277, (5aS,6R,11bS)-14-(cyclopropylmethyl)-3-(2-(4-methyl-1H-pyrazol-1-yl)ethyl)-2,3,4,5,6,7-hexahydro-6,11b-(epiminoethano)naphtho[1,2-d]azepine-5a,11(1H)-diol] | 6.4 |
| Cc1cnn(CCN2CC[C@]34CCN(CC5CC5)[C@H](Cc5cc(C(N)=O)c(O)cc53)[C@]4(O)CC2)c1 [Example 295, (5aS,6R,11bS)-14-(cyclopropylmethyl)-5a,10-dihydroxy-3-(2-(4-methyl-1H-pyrazol-1-yl)ethyl)-1,2,3,4,5,5a,6,7-octahydro-6,11b-(epiminoethano)naphtho[1,2-d]azepine-9-carboxamide] | 17.2 |
| Cc1cnn(CCN2CC[C@]34CCN(CC5CC5)[C@H](Cc5cc(I)c(O)cc53)[C@]4(O)CC2)c1 [Example 298, (5aS,6R,11bS)-14-(cyclopropylmethyl)-9-iodo-3-(2-(4-methyl-1H-pyrazol-1-yl)ethyl)-2,3,4,5,6,7-hexahydro-6,11b-(epiminoethano)naphtho[1,2-d]azepine-5a,10(1H)-diol] | 22.5 |
| O=C(Cc1ccccn1)N1CC[C@]23CCN(CC4CC4)[C@H](Cc4cc(C(F)(F)F)c(O)cc42)[C@]3(O)CC1 [Example 320, 1-((5aS,6R,11bR)-14-(cyclopropylmethyl)-5a,10-dihydroxy-9-(trifluoromethyl)-1,2,5,5a,6,7-hexahydro-6,11b-(epiminoethano)naphtho[1,2-d]azepin-3(4H)-yl)-2-(pyridin-2-yl)ethan-1-one] | 22.9 |
| Cc1cc2c(cc1O)[C@@]13CCN(C(=O)Cc4cccc(C(F)(F)F)n4)CC[C@@]1(O)[C@@H](C2)N(CC1CC1)CC3 [Example 322, 1-((5aS,6R,11bR)-14-(cyclopropylmethyl)-5a,10-dihydroxy-9-methyl-1,2,5,5a,6,7-hexahydro-6,11b-(epiminoethano)naphtho[1,2-d]azepin-3(4H)-yl)-2-(6-(trifluoromethyl)pyridin-2-yl)ethan-1-one] | 6.6 |
| NC(=O)c1ccc2c(c1O)[C@@]13CCN(C(=O)Cc4ccccn4)CC[C@@]1(O)[C@@H](C2)N(CC1CC1)CC3 [Example 353, (5aS,6R,11bR)-14-(cyclopropylmethyl)-5a,11-dihydroxy-3-(2-(pyridin-2-yl)acetyl)-1,2,3,4,5,5a,6,7-octahydro-6,11b-(epiminoethano)naphtho[1,2-d]azepine-10-carboxamide] | 7.9 |
